Patent US5817766A, “Reagents for a cannabinoid immunoassay” (Roche Diagnostic Systems, Inc., priority 1995, dated 1998)

Legend:
[1] = tested on: MoAb 11E.2; assay: MIRA assay ABUSCREEN 100 TEST ONLINE KIT for cannabinoids, MoAb 11E.2; format: binding, Murine; settings: commercial MIRA assay; (II) = 100 by definition; IgA from immunization with (VIII) alone
Excerpt: (§1) Table 2 below illustrates how a novel clone (11A6) derived by using the triple sequential immunization procedure described herein performs in an actual commercial MIRA (Roche Diagnostic Systems, Inc., Branchburg, N.J.) assay ABUSCREEN® 100 TEST ONLINE™ KIT (Roche Diagnostic Systems, Inc., Branchburg, N.J. immunoassay) for cannabinoids. Example 20 describes the reagents contained in Roche's commercial Abuscreen® 100 Test Online™ Kit, except that the antibody has been replaced by a novel antibody according to this invention. […] Both tables also report the corresponding results using the monoclonal antibody (11E.2) derived from immunization with a single immunogen (immunogen (VIII)).
(§2) In Table 2, MoAb 11E.2 is an IgA (dimeric) antibody, while MoAB 11A6 is an IgG (monomeric) antibody. In order to agglutinate the microparticles included in the current commercial MIRA assay when 11A6 is used, inclusion of an anti-IgG antibody (commercially available, e.g., from Biodesign Int., Kennebunk, Me. 04043, USA) was required.
(§3) This example describes the reagents contained in Roche's ABUSCREEN® 100 TEST ONLINE™ KIT (Roche Diagnostic Systems, Inc., Branchburg, N.J. immunoassay) for cannabinoids.
(§4) 1. Antibody Reagent: A cannabinoid monoclonal antibody (IgG) with a secondary antibody adjusted in concentration to give the best dynamic standard curve with desired performance characteristics around the assay cutoff. This antibody is diluted in an antibody diluent containing: 50 mM HEPES, 0.1% BSA, 0.5% sodium chloride, 0.09% sodium azide and adjusted to a pH of 6.5.
(§5) 2. Microparticle Reagent: Conjugated cannabinoids derivative microparticle in a buffer containing 10 mM kPi pH 7.5 and 0.09% sodium Azide (supplied in kit).
(§6) 3. Sample Diluent: Buffer containing 50 mM PIPES pH 7.0, 2.5% PVP, 2.0% Sodium Chloride and 0.09% sodium azide (supplied in kit).
(§7) An assay using the above reagents is performed pursuant to the directions stated in the package insert for the commercially available Roche Abuscreen® Online™ 100 test kit for cannabinoids.

[2] = tested on: MoAb 11A6; assay: MIRA assay ABUSCREEN 100 TEST ONLINE KIT for cannabinoids, MoAb 11A6 with anti-IgG; format: binding, Murine; settings: commercial MIRA assay; (II) = 100 by definition; IgG from triple sequential immunization
Excerpt: as §1, §2, §3, §4, §5, §6, §7

Row | Structure (SMILES) | CROSS REACTIVITY (%) MoAb 11E.2 [1] [%] | CROSS REACTIVITY (%) MoAb 11A6 with anti-IgG [2] [%]
1 | CCCCCc1cc(O)c2c(c1)OC(C)(C)[C@@H]1CCC(C(=O)O)=C[C@@H]21 [(-)-Δ^9-11-nor-9-COOH-THC (II), Δ^9-11-nor-9-carboxy-THC] | 100 | 100
2 | CCCCCc1cc(O)c2c(c1)OC(C)(C)[C@@H]1C[C@@H](O)C(CO)=C[C@@H]21 [(-)-8β,11-Dihydroxy-Δ^9 -THC (VII), (-)-8β,11-Dihydroxy-Δ^9 -THC] | 14 | 36
3 | C=C(C)[C@@H]1CCC(C)=C[C@H]1c1c(O)cc(CCCCC)cc1O [Cannabidiol] | < 0.1 | < 0.1
4 | CCCCCc1cc(O)c2c(c1)OC(C)(C)c1ccc(C)cc1-2 [Cannabinol] | 0.6 | 1.6
5 | CCCCCc1cc(O)c2c(c1)OC(C)(C)[C@@H]1C[C@H](O)C(C)=C[C@@H]21 [(-)-8α-Hydroxy-Δ^9 -THC (VI), (-)-8α-Hydroxy-Δ^9 -THC] | 60 | 71
6 | CCCCCc1cc(O)c2c(c1)OC(C)(C)[C@@H]1CCC(C)=C[C@@H]21 [(-)-Δ^9 -THC, Δ^9 -tetrahydrocannabinol] | 7.6 | 7.3
7 | CCCCCc1cc(O)c2c(c1)OC(C)(C)[C@@H]1CCC(CO)=C[C@@H]21 [(-)-11-Hydroxy-Δ^9 -THC (V), (-)-11-Hydroxy-Δ^9 -THC] | 23 | 32
8 | CCCCCc1cc(O)c2c(c1)OC(C)(C)c1ccc(CO)cc1-2 [11-Hydroxycannabinol] | 16 | 35
